Test results reported in ChEMBL document CHEMBL6120941, “Discovery of SIRT1-Activating Hydrogen Sulfide Donating Derivatives for Efficient Resistant of Myocardial Ischemic Injury” (J Med Chem, 2024).
Activity calls are given as the source filed them. The rule behind the calls is not given here.

Assays:
H9c2 [1] = assay: Cardioprotective activity against CoCl2-induced cellular hypoxia injury in rat H9c2 cells assessed as increase in cell viability at 30 uM incubated for 24 hrs by CCK-8 assay; assay type: functional, cell-based
H9c2 [2] = assay: Cardioprotective activity against CoCl2-induced cellular hypoxia injury in rat H9c2 cells assessed as mitochondrial membrane potential at 10 uM incubated for 24 hrs in presence of GSSG by JC-1 staining based analysis (reference value: 48.08 %); assay type: functional
H9c2 [3] = assay: Cardioprotective activity against CoCl2-induced cellular hypoxia injury in rat H9c2 cells assessed as rate of apoptosis at 10 uM incubated for 24 hrs in presence of GSSG by flow cytometry (reference value: 19.5 %); assay type: functional

C=CCSSCCC(=O)O[C@H]1CC[C@]2(C)[C@H]3C[C@@H](O)[C@@H]4[C@@H]([C@]5(C)CC[C@@H](C(C)(C)O)O5)CC[C@@]4(C)[C@]3(C)CC[C@H]2C1(C)C
Activity (H9c2 [1]): inactive
Activity (H9c2 [2]): 61.96%
Activity (H9c2 [3]): 8.01%
